From ChEMBL document CHEMBL3885861, “Open TG-GATES”

Species on record: Rattus norvegicus
Assay: Open TG-GATES - Regimen: Single
Type: toxicity, organism-based, Sprague-Dawley
Parameters: regimen Single, gender Male, age 6 weeks
Details: in vivo, po, route gavage; for APTT / Bas / Eos / Fbg / Hb / Ht / Lym / MCH / MCHC / MCV / Mono / Neu / PT / Plat / RBC / Ret / WBC: tissue Blood; for KIDNEY_L / KIDNEY_R / KIDNEY_TOTAL: tissue Kidney; for LIVER: tissue Liver; for A/G / ALP / ALT / AST / BUN / CRE / Ca / Cl / DBIL / GLC / IP / K / LDH / Na / PL / RALB / TBIL / TC / TG / TP / gamma-GTP: tissue Plasma
[1] = 0 mg/kg, 3 h, dose level Control
[2] = 0 mg/kg, 6 h, dose level Control
[3] = 0 mg/kg, 9 h, dose level Control
[4] = 0 mg/kg, 24 h, dose level Control

## CC(=O)Oc1cc(C(C)C)c(OCCN(C)C)cc1C [MOXISYLYTE]
[1]
  TERMINAL_BW: 216.6 g
  APTT: 21.3 s
  Bas: 0%
  Eos: 1%
  Fbg: 307.8 mg/dL
  Hb: 13 g/dL
  Ht: 37.8%
  Lym: 76.6%
  MCH: 21.2 pg
  MCHC: 34.4%
  MCV: 61.6 fL
  Mono: 2.4%
  Neu: 19.2%
  PT: 16.1 s
  Plat: 118.3 x10_4/uL
  RBC: 614.4 x10_4/ul
  Ret: 8.8%
  WBC: 111.5 x10_2/uL
  KIDNEY_L: 0.9 g
  KIDNEY_R: 0.9 g
  KIDNEY_TOTAL: 1.9 g
  LIVER: 9.9 g
  A/G: 1.3
  ALP: 1431.6 IU/L
  ALT: 41 IU/L
  AST: 73.6 IU/L
  BUN: 14.6 mg/dL
  CRE: 0.2 mg/dL
  Ca: 10.8 mg/dL
  Cl: 106 meq/L
  DBIL: 0.004 mg/dL
  GLC: 186.8 mg/dL
  IP: 7.7 mg/dL
  K: 4.3 meq/L
  LDH: 263.8 IU/L
  Na: 141.6 meq/L
  PL: 137.4 mg/dL
  RALB: 3 g/dL
  TBIL: 0.02 mg/dL
  TC: 79.8 mg/dL
  TG: 57 mg/dL
  TP: 5.3 g/dL
  gamma-GTP: 1 IU/L
[2]
  TERMINAL_BW: 204.4 g
  APTT: 20.5 s
  Bas: 0%
  Eos: 1%
  Fbg: 338.6 mg/dL
  Hb: 13.7 g/dL
  Ht: 39.5%
  Lym: 80.2%
  MCH: 21.4 pg
  MCHC: 34.6%
  MCV: 61.9 fL
  Mono: 1.8%
  Neu: 16.6%
  PT: 16.4 s
  Plat: 129.2 x10_4/uL
  RBC: 638.2 x10_4/ul
  Ret: 8.1%
  WBC: 99.5 x10_2/uL
  KIDNEY_L: 0.9 g
  KIDNEY_R: 1 g
  KIDNEY_TOTAL: 1.9 g
  LIVER: 8.8 g
  A/G: 1.3
  ALP: 1524.2 IU/L
  ALT: 40.2 IU/L
  AST: 76.4 IU/L
  BUN: 10.8 mg/dL
  CRE: 0.1 mg/dL
  Ca: 10.6 mg/dL
  Cl: 106.6 meq/L
  DBIL: 0.024 mg/dL
  GLC: 183.4 mg/dL
  IP: 8.9 mg/dL
  K: 4.4 meq/L
  LDH: 273 IU/L
  Na: 141.4 meq/L
  PL: 125.4 mg/dL
  RALB: 3.1 g/dL
  TBIL: 0.016 mg/dL
  TC: 71.4 mg/dL
  TG: 47.8 mg/dL
  TP: 5.4 g/dL
  gamma-GTP: 1.2 IU/L
[3]
  TERMINAL_BW: 211.6 g
  APTT: 20.8 s
  Bas: 0%
  Eos: 1%
  Fbg: 295.6 mg/dL
  Hb: 13.2 g/dL
  Ht: 38.3%
  Lym: 82.2%
  MCH: 21.6 pg
  MCHC: 34.4%
  MCV: 62.7 fL
  Mono: 2%
  Neu: 14.8%
  PT: 16.1 s
  Plat: 114.1 x10_4/uL
  RBC: 611 x10_4/ul
  Ret: 8.2%
  WBC: 120.9 x10_2/uL
  KIDNEY_L: 1 g
  KIDNEY_R: 1 g
  KIDNEY_TOTAL: 1.9 g
  LIVER: 8.9 g
  A/G: 1.3
  ALP: 1372.2 IU/L
  ALT: 36.8 IU/L
  AST: 72 IU/L
  BUN: 12.8 mg/dL
  CRE: 0.1 mg/dL
  Ca: 10.5 mg/dL
  Cl: 106.6 meq/L
  DBIL: 0.018 mg/dL
  GLC: 184.8 mg/dL
  IP: 9.6 mg/dL
  K: 4.5 meq/L
  LDH: 214 IU/L
  Na: 142.2 meq/L
  PL: 133.2 mg/dL
  RALB: 3 g/dL
  TBIL: 0.014 mg/dL
  TC: 71.8 mg/dL
  TG: 65.4 mg/dL
  TP: 5.4 g/dL
  gamma-GTP: 1 IU/L
[4]
  TERMINAL_BW: 218.4 g
  APTT: 20.3 s
  Bas: 0%
  Eos: 0.8%
  Fbg: 285.6 mg/dL
  Hb: 13.6 g/dL
  Ht: 39.3%
  Lym: 79.2%
  MCH: 21.5 pg
  MCHC: 34.5%
  MCV: 62.3 fL
  Mono: 2.2%
  Neu: 17.4%
  PT: 16.2 s
  Plat: 118.6 x10_4/uL
  RBC: 631.4 x10_4/ul
  Ret: 7.8%
  WBC: 102.9 x10_2/uL
  KIDNEY_L: 1 g
  KIDNEY_R: 1 g
  KIDNEY_TOTAL: 1.9 g
  LIVER: 10 g
  A/G: 1.2
  ALP: 1643.4 IU/L
  ALT: 44.8 IU/L
  AST: 78.2 IU/L
  BUN: 18.4 mg/dL
  CRE: 0.2 mg/dL
  Ca: 10.9 mg/dL
  Cl: 106.8 meq/L
  DBIL: 0 mg/dL
  GLC: 189 mg/dL
  IP: 6.6 mg/dL
  K: 4.3 meq/L
  LDH: 251.4 IU/L
  Na: 142 meq/L
  PL: 151.4 mg/dL
  RALB: 3.1 g/dL
  TBIL: 0.006 mg/dL
  TC: 79.8 mg/dL
  TG: 89 mg/dL
  TP: 5.7 g/dL
  gamma-GTP: 1.2 IU/L
50 mg/kg, 3 h, dose level Low
  TERMINAL_BW: 210.1 g
  APTT: 21.8 s
  Bas: 0%
  Eos: 1.2%
  Fbg: 298.6 mg/dL
  Hb: 13.1 g/dL
  Ht: 38.6%
  Lym: 80%
  MCH: 21 pg
  MCHC: 34%
  MCV: 61.9 fL
  Mono: 2.4%
  Neu: 15.8%
  PT: 16.3 s
  Plat: 122 x10_4/uL
  RBC: 624.4 x10_4/ul
  Ret: 8.5%
  WBC: 93.6 x10_2/uL
  KIDNEY_L: 0.9 g
  KIDNEY_R: 0.9 g
  KIDNEY_TOTAL: 1.9 g
  LIVER: 9.4 g
  A/G: 1.2
  ALP: 1650.4 IU/L
  ALT: 42.8 IU/L
  AST: 80.2 IU/L
  BUN: 13.8 mg/dL
  CRE: 0.1 mg/dL
  Ca: 10.8 mg/dL
  Cl: 107.6 meq/L
  DBIL: 0.002 mg/dL
  GLC: 180.2 mg/dL
  IP: 8.6 mg/dL
  K: 4.5 meq/L
  LDH: 254.2 IU/L
  Na: 142.4 meq/L
  PL: 134.8 mg/dL
  RALB: 3 g/dL
  TBIL: 0.018 mg/dL
  TC: 72.6 mg/dL
  TG: 70.2 mg/dL
  TP: 5.4 g/dL
  gamma-GTP: 1 IU/L
50 mg/kg, 6 h, dose level Low
  TERMINAL_BW: 210.4 g
  APTT: 22.1 s
  Bas: 0%
  Eos: 0.8%
  Fbg: 309.8 mg/dL
  Hb: 13 g/dL
  Ht: 37.8%
  Lym: 77%
  MCH: 21.3 pg
  MCHC: 34.5%
  MCV: 61.7 fL
  Mono: 2.4%
  Neu: 18.8%
  PT: 15.9 s
  Plat: 116 x10_4/uL
  RBC: 612.6 x10_4/ul
  Ret: 8.4%
  WBC: 70 x10_2/uL
  KIDNEY_L: 0.9 g
  KIDNEY_R: 0.9 g
  KIDNEY_TOTAL: 1.9 g
  LIVER: 9 g
  A/G: 1.3
  ALP: 1379.6 IU/L
  ALT: 35.8 IU/L
  AST: 70.6 IU/L
  BUN: 11 mg/dL
  CRE: 0.1 mg/dL
  Ca: 10.6 mg/dL
  Cl: 107.4 meq/L
  DBIL: 0.004 mg/dL
  GLC: 181.4 mg/dL
  IP: 9.2 mg/dL
  K: 4.4 meq/L
  LDH: 189 IU/L
  Na: 141.4 meq/L
  PL: 146.8 mg/dL
  RALB: 3 g/dL
  TBIL: 0.028 mg/dL
  TC: 84.2 mg/dL
  TG: 74 mg/dL
  TP: 5.3 g/dL
  gamma-GTP: 1 IU/L
50 mg/kg, 9 h, dose level Low
  TERMINAL_BW: 208.4 g
  APTT: 20.8 s
  Bas: 0%
  Eos: 0.4%
  Fbg: 309.8 mg/dL
  Hb: 13.3 g/dL
  Ht: 38.7%
  Lym: 83.4%
  MCH: 21.2 pg
  MCHC: 34.4%
  MCV: 61.8 fL
  Mono: 1.4%
  Neu: 14.2%
  PT: 15.8 s
  Plat: 122.4 x10_4/uL
  RBC: 627 x10_4/ul
  Ret: 8.1%
  WBC: 81 x10_2/uL
  KIDNEY_L: 0.9 g
  KIDNEY_R: 0.9 g
  KIDNEY_TOTAL: 1.8 g
  LIVER: 8.6 g
  A/G: 1.3
  ALP: 1432 IU/L
  ALT: 40.6 IU/L
  AST: 71.2 IU/L
  BUN: 12 mg/dL
  CRE: 0.1 mg/dL
  Ca: 10.6 mg/dL
  Cl: 108.2 meq/L
  DBIL: 0.012 mg/dL
  GLC: 182.6 mg/dL
  IP: 9.4 mg/dL
  K: 4.3 meq/L
  LDH: 242.6 IU/L
  Na: 143 meq/L
  PL: 144.8 mg/dL
  RALB: 3.1 g/dL
  TBIL: 0.018 mg/dL
  TC: 82.6 mg/dL
  TG: 84.2 mg/dL
  TP: 5.6 g/dL
  gamma-GTP: 1.2 IU/L
50 mg/kg, 24 h, dose level Low
  TERMINAL_BW: 221.4 g
  APTT: 19.7 s
  Bas: 0%
  Eos: 1%
  Fbg: 309 mg/dL
  Hb: 13.2 g/dL
  Ht: 38.3%
  Lym: 79.4%
  MCH: 21.2 pg
  MCHC: 34.5%
  MCV: 61.5 fL
  Mono: 2.2%
  Neu: 16.8%
  PT: 15.8 s
  Plat: 122.9 x10_4/uL
  RBC: 622.4 x10_4/ul
  Ret: 8.5%
  WBC: 94.4 x10_2/uL
  KIDNEY_L: 0.9 g
  KIDNEY_R: 0.9 g
  KIDNEY_TOTAL: 1.9 g
  LIVER: 10.7 g
  A/G: 1.2
  ALP: 1498.2 IU/L
  ALT: 52.4 IU/L
  AST: 89.6 IU/L
  BUN: 18.4 mg/dL
  CRE: 0.1 mg/dL
  Ca: 11.1 mg/dL
  Cl: 107 meq/L
  DBIL: 0 mg/dL
  GLC: 181.8 mg/dL
  IP: 7.5 mg/dL
  K: 4.4 meq/L
  LDH: 271 IU/L
  Na: 142 meq/L
  PL: 163.4 mg/dL
  RALB: 3.1 g/dL
  TBIL: 0.002 mg/dL
  TC: 84.8 mg/dL
  TG: 117 mg/dL
  TP: 5.8 g/dL
  gamma-GTP: 1.2 IU/L
